Test results taken from patent US20260284150A1, “TOPICAL PROTEIN BASED FORMULATION” (OPTIMUS SALVUS LIMITED, priority 2023, published 2026).

Columns and labels:
[1] = CBD dosage optimisation and cell toxicity assay (WST-1); format: cell-based; conditions: human; HDF cells, 24 hours incubation, WST-1 reagent, CBD up to 25 μg/mL; read-out: CBD concentrations toxic to human fibroblast cells
Experimental: The following reagents were purchased from ThermoFisher: Human Fibroblast Expansion Basal Medium, Low Serum Growth Supplement (LSGS), EpiLife™ Medium with 60 μM calcium, Human Keratinocyte Growth Supplement (HKGS), Trypsin-EDTA (0.05%), phenol red. Fetal Bovine Serum (French Origin) was purchased from Scientifix. Human skin cells: Fibroblasts (HDF) and Keratinocyte (HEK) cells were purchased from Sigma Aldrich and ThermoFisher respectively. HDF cells were grown in Fibroblast media supplemented with 1×LSGS, while HEK cells were grown in Keratinocyte media supplemented with 1×HKGS. Both cell lines were kept in an incubator at 37° C., with 5% CO2.
The human skin cells (HDF and HEK) were cultured in respective media and were grown in T25 flasks until ~70-80% confluent. Once confluent, the cells were washed with 1×PBS and split using 0.05% Trypsin-EDTA solution. The cell pellet was collected and split into a fresh T25 flask and T75 flask containing full growth media at a dilution factor of 1:4 and incubated at 37° C., 5% CO2. Cells were >85-92% viable based on Trypan blue exclusion when seeding and passing. […]

[2] = HEDS (2-hydroxyethyl disulphide) enzyme assay, NADPH consumption at A340 nm; format: biochemical; conditions: coupled with glutathione (GSH) and glutathione reductase (GR); versus buffer control without CLIC
Experimental: The functional activity of the purified CLIC1, CLIC3 and CLIC4 proteins were analysed using the HEDS assay. The assay measures the ability of the CLIC proteins to reduce the HEDS substrate when coupled with glutathione (GSH) and glutathione reductase (GR) resulting in the consumption of NADPH that is monitored at A340 nm.

| Compound | MCC at 24 h [1] [µg/mL] | enzymatic activity: reduction of HEDS substrate, decrease in absorbance at 340 nm (consumption of NADPH) [2] |
| --- | --- | --- |
| C=C(C)[C@@H]1CCC(C)=C[C@H]1c1c(O)cc(CCCCC)cc1O [CBD, cannabidiol] | > 4 | – |
| CLIC4: purified recombinant human chloride intracellular channel protein 4, expressed in E. coli, GST tag cleaved | – | significant enzymatic activity |
